In patent US20220324770A1, “NITRIFICATION INHIBITORS” (The University of Melbourne, priority 2019, published 2022):

Experiments:
Terang soil = test: Soil microcosm incubation (nitrification of applied ammonium), Terang soil
Description: The soil used in this study was collected from four different locations in Victoria, Australia: (i) a wheat cropping soil from Horsham (36° 45′S, 142° 07′ E), (ii) a rotational cropping soil from Dahlen (36° 37′S, 142° 09′ E), (iii) a vegetable growing soil from Clyde (38° 08′S, 145° 20′ E), and (iv) a pasture soil from Terang (38° 15′S, 142° 52′E). In addition, a sugarcane cropping soil from South Johnstone in northern Queensland (17° 34′S, 145° 57′ E) was also studied. The water content of the soil was calculated before commencing each experiment, from samples that were oven-dried to constant weight. The soil's water-filled pore space (WFPS) was in the range 52%-61%, which is within the recommended 50-70% range for microbial activity due to oxygen and nutrient availability (Fichtner, T., et al., Applied Sciences, 2019, 9, 496).
Soil microcosm incubations were carried out in 250 ml polypropylene specimen containers (Sarstedt, Germany), containing 18.24 g oven dry-weight equivalent of soil. Microcosms were re-wetted and pre-incubated at the test temperature for seven days to revive soil microbial activity. Following pre-incubation, the remaining volume to reach the desired water-filled pore spaces (WFPS %) was applied as one of the following treatment solutions; (NH4)2SO4(Control), (NH4)2SO4+DMPP, or (NH4)2SO4+one of Compounds 1-23. Each treatment was applied in triplicate per soil type, so that n=3 at each time point.
Treatment solutions were prepared such that each microcosm received (NH4)2SO4 at a rate of 100 mg N per kg soil, Compounds 1-23 at 10 mol % of applied N, or DMPP at one of 1.5, 3.6 or 10 mol % of applied N, referred to as L-DMPP, M-DMPP or H-DMPP respectively.
The microcosms were incubated for 0, 3, 7, 14, 21 or 28 days, where day 0 samples were extracted following 1-hour incubation post-treatment. Soil microcosms were aerated and moisture levels were replenished based on weight loss every few days throughout the incubation period.
At the end of each incubation period, soil microcosms were destructively sampled by treatment with 2M KCl (100 mL). After shaking for 1 hour, soil-KCl solutions were filtered (Whatman 42) before storing the filtrates at −20° C. until the conclusion of the experiment. All KCl extracts were then analysed by Segmented Flow Analysis (San++, Skalar, Breda, The Netherlands) for the concentration of nitrogen from ammonium (NH4^+—N) and nitrogen from NO3 and NO2 (NOx^−—N) after appropriate dilutions. Results are reported as the mean of three replicates, errors reported are standard errors of the mean.
Nitrification calculations were performed as previously reported (Aulakh, M., et al., Biology and Fertility of Soils 2001, 33, 258-263; Mahmood, T., et al., Soil Research 2017, 55, 715-722) without correction for the initial baseline concentrations of NH4^+—N or NO3^− N in the untreated soil. For each treatment nitrified NH4^+—N (%) was calculated according to eqn. 1:
where [NH4^+—N]0 is the NH4^+—N concentration (in mg N kg^−1 soil) of the soil on day 0 and [NH4^+—N]t is the NH4^+—N concentration (in mg N kg^−1 soil) of the soil at a given time point t.

[1] = temperature of 35° C.; cited from earlier work

With `Cc1c[nH]nc1C.O=P(O)(O)O` [DMPP, 3,4-dimethylpyrazole phosphate, reference compound] the “Nitrified NH4+—N (%) Day 3” value (Terang soil; Terang soil pH 6.5, 25° C., day 3, compounds 10 mol % of applied N, L-DMPP 1.5 mol %, (NH4)2SO4 100 mg N per kg soil) was 23.5 ± 3.7%, the “Nitrified NH4+—N (%) Day 7” value (Terang soil; Terang soil pH 6.5, 25° C., day 7, compounds 10 mol %, L-DMPP 1.5 mol %) was 47.8 ± 2.0% and the “Nitrified NH4+—N (%) Day 14” value (Terang soil; Terang soil pH 6.5, 25° C., day 14, compounds 10 mol %, L-DMPP 1.5 mol %) was 89.6 ± 3.1%. For the same molecule, the “Nitrified NH4+—N (%) Day 28” value (Terang soil; Terang soil pH 6.5, 25° C., day 28, compounds 10 mol %, L-DMPP 1.5 mol %) was 100 ± 2.5%, the “retaining NH4+—N in the soil compared with the fertilised control” value (Terang soil; Terang soil, 25° C.) was “most effective treatments” and the “time DMPP remains effective” value [1] was “only one week”.
